Source: PubChem BioAssay AID2060362 (Molecular Pharmacology Branch, DTP, NCI, 2025)
pIC50: −log10 of the molar value. Values joined by “and” are separate entries in the source; they are usually repeats but may differ in a detail not shown here. Equal values may be shown once.

Test system: 128128-338-R-J1-PDC spheroids, viability % test/control
Experiment: Anticancer human tumor 128128-338-R-J1-PDC patient-derived melanoma cell line growth inhibition [TAK]
Conditions: spheroids with HUVEC and MSC; for viability, T/C: stronger effect = lower value
From the text: Combinatorial screen of targeted agents with TAK-243 and ipatasertib in multi-cell type tumor spheroids
A high-throughput screen of multi-cell type tumor spheroids was designed to identify active combinations of targeted small molecules and TAK-243 or ipatasertib. Complex spheroids include a stromal component modeled by human endothelial cells (HUVEC) and fibroblasts modeled by human mesenchymal stem cells (MSCs). The concentration ranges selected for each drug and investigational agent were based upon clinically achievable concentrations if the clinical Cmax of the agent was known.
Compounds. The drugs and investigational agents: TAK-243 (785004), ipatasertib (767898), everolimus (733504), selumetinib (741078), bortezomib (756655), trametinib (758246), ixazomib (758254), vemurafenib (761431), dabrafenib (764134), sapanisertib (764658), alpelisib (765974), and copanlisib (816437), were obtained from the National Cancer Institute (NCI) Developmental Therapeutics Program Chemical Repository. The FDA-approved anticancer drug set is available from the NCI Developmental Therapeutics Program. […] The stock solutions were prepared in dimethyl sulfoxide (DMSO, Sigma-Aldrich, St. Louis, MO, cat. D2650) at 800-fold the tested concentration and stored at -70 degrees C prior to their use. All drugs and investigational agents were tested over a range starting from a high concentration at or near the clinical Cmax and decreasing in half-log increments. If the clinical Cmax for an agent had not been determined, the highest concentration tested was 10 microM.
NCI60 Cell Culture. NCI60 cell lines were obtained from the NCI Developmental Therapeutics Program Tumor Repository. For each lot of cells, the Repository performed Applied Biosystems AmpFLSTR Identifiler testing with PCR amplification to confirm consistency with the published Identifier STR profile for each cell line. Cells were kept in continuous culture for no more than 20 passages. The optimal seeding densities for each of the cell lines at each time point assessed were determined prior to performing the concentration response studies. Briefly, the NCI60 human tumor lines were grown as monolayers in RPMI 1640 medium supplemented with 10% FBS and 2 mmol/L L-glutamine.
An additional 2 lines were from the NCI60 cell line panel including melanomas, MALME-3M and SK-MEL-2. Pooled donor human umbilical vein endothelial cells (HUVEC, Lonza, cat. CC-2519) and human mesenchymal stem cells (hMSC, Lonza, cat. PT-2501) were purchased from Lonza (Walkersville, MD).
PDMR cell lines were grown in complete medium (DC medium): Dulbecco's modified Eagle's medium (DMEM)/F12 supplemented with 5% fetal bovine serum (FBS), 2 mM L-glutamine, 100 U/mL penicillin and 100 µg/ml streptomycin, 0.4 µg/ml hydrocortisone, 10 ng/ml epidermal growth factor (EGF) recombinant human protein, 24 µg/mL adenine, and 0.1 mg/mL primocin. During culture from frozen stock vials, PDMR cells were cultured in the same medium containing 10 µM Y-27632 (see Table 3). The PDCs were cultured in complete DMEM/F12 media without 10 microM Y-27632 dihydrochloride for at least two passages prior to the screen. The pooled donor HUVEC and hMSC were cultured in endothelial cell growth medium 2 (PromoCell, Heidelberg, Germany, cat. C-22011) and mesenchymal stem cell growth medium 2 (PromoCell, cat. C-28009), respectively. For all experiments, HUVEC and hMSC were used at passages </=5.
For the pre-screen, cell seeding densities were determined from a titration spanning the range from 5,000 to 313 cells per well. The mct-spheroids including 60% malignant cells, 25% HUVEC and 15% MSC dispensed as a mixture into U-bottom Ultra-Low Attachment 384-well plates (Corning, NY)
High-throughput Drug Combination Screening.
Prior to their inoculation into 384-well plates, malignant cells, HUVEC, and hMSC were removed from T flasks using TrypLE express (Thermo Fisher Scientific, cat. 12605036) and harvested by centrifugation for 5 min at 233 x g. […]

[1] = curve of first compound, second compound 0.3 µM
[2] = curve of first compound, second compound 0.949 µM
[3] = curve of first compound, second compound 3 µM
[4] = curve of first compound, second compound 9.49 µM
[5] = curve of first compound, second compound 30 µM
[6] = second compound 0.3 µM, first compound 0.000316 µM
[7] = second compound 0.3 µM, first compound 0.001 µM
[8] = second compound 0.3 µM, first compound 0.00316 µM
[9] = second compound 0.3 µM, first compound 0.01 µM
[10] = second compound 0.949 µM, first compound 0.000316 µM
[11] = second compound 0.949 µM, first compound 0.001 µM
[12] = second compound 0.949 µM, first compound 0.00316 µM
[13] = second compound 0.949 µM, first compound 0.01 µM
[14] = second compound 3 µM, first compound 0.000316 µM
[15] = second compound 3 µM, first compound 0.001 µM
[16] = second compound 3 µM, first compound 0.00316 µM
[17] = second compound 3 µM, first compound 0.01 µM
[18] = second compound 9.49 µM, first compound 0.000316 µM
[19] = second compound 9.49 µM, first compound 0.001 µM
[20] = second compound 9.49 µM, first compound 0.00316 µM
[21] = second compound 9.49 µM, first compound 0.01 µM
[22] = second compound 30 µM, first compound 0.000316 µM
[23] = second compound 30 µM, first compound 0.001 µM
[24] = second compound 30 µM, first compound 0.00316 µM
[25] = second compound 30 µM, first compound 0.01 µM
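Also: spheroids exposed to compounds for 7 days.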
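For viability, T/C in this document: 100% = DMSO vehicle wells.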

`CC(C)CC(NC(=O)C(Cc1ccccc1)NC(=O)c1cnccn1)B(O)O` (configuration not stated) + CC(C)NCC(C(=O)N1CCN(c2ncnc3c2C(C)CC3O)CC1)c1ccc(Cl)cc1 was tested, and the pIC50 [1] was 8.74, the pIC50 [2] was 8.74 and the pIC50 [3] was 8.79. For the same compound, the pIC50 [4] was 8.91, the pIC50 [5] was > 10.50 and the viability, T/C (second compound 0.3 µM, first compound 31.6 pM) was 102%. It also gave a viability, T/C (second compound 0.3 µM, first compound 0.0001 µM) of 102%, a viability, T/C [6] of 96.1% and a viability, T/C [7] of 97.3%. It also gave a viability, T/C [8] of 4.43%, a viability, T/C [9] of 0.08% and a viability, T/C (second compound 0.949 µM, first compound 31.6 pM) of 102%. For the same compound, the viability, T/C (second compound 0.949 µM, first compound 0.0001 µM) was 108%, the viability, T/C [10] was 109% and the viability, T/C [11] was 101%. It also gave a viability, T/C [12] of 2.86%, a viability, T/C [13] of 0.1% and a viability, T/C (second compound 3 µM, first compound 31.6 pM) of 84%. For the same compound, the viability, T/C (second compound 3 µM, first compound 0.0001 µM) was 87.6%, the viability, T/C [14] was 90.9% and the viability, T/C [15] was 83.1%. It also gave a viability, T/C [16] of 6.23%, a viability, T/C [17] of 0.05% and a viability, T/C (second compound 9.49 µM, first compound 31.6 pM) of 66.8%. It also gave a viability, T/C (second compound 9.49 µM, first compound 0.0001 µM) of 71%, a viability, T/C [18] of 72.5% and a viability, T/C [19] of 60%. The viability, T/C [20] was 1.26%, the viability, T/C [21] was 0.08% and the viability, T/C (second compound 30 µM, first compound 31.6 pM) was 21.8%. For the same compound, the viability, T/C (second compound 30 µM, first compound 0.0001 µM) was 21.8%, the viability, T/C [22] was 23.7% and the viability, T/C [23] was 22%. For the same compound, the viability, T/C [24] was 0.38% and the viability, T/C [25] was 0.13%.

In the case of `CC(=O)Nc1cccc(-n2c(=O)n(C3CC3)c(=O)c3c(Nc4ccc(I)cc4F)n(C)c(=O)c(C)c32)c1`, the viability, T/C (compound 94.9 pM) was 98.2% and 101%, the viability, T/C (compound 0.0003 µM) was 97.9% and 94.4% and the viability, T/C (compound 0.000949 µM) was 82.8% and 70%. The viability, T/C (compound 0.003 µM) was 41.4% and 25.6%, the viability, T/C (compound 0.00949 µM) was 5.07% and 3.1% and the viability, T/C (compound 0.03 µM) was 2.37% and 2.18%. The pIC50 (curve of compound) was 8.63 and 8.80.

For `CC(C)NCC(C(=O)N1CCN(c2ncnc3c2C(C)CC3O)CC1)c1ccc(Cl)cc1` (configuration not stated), the viability, T/C (compound 0.3 µM) was 102% [middle of 10 runs], the viability, T/C (compound 0.949 µM) was 93% [middle of 10 runs] and the viability, T/C (compound 3 µM) was 89.2% [middle of 10 runs]. The viability, T/C (compound 9.49 µM) was 69.5% [middle of 10 runs] and the viability, T/C (compound 30 µM) was 22.7% [middle of 10 runs].

`CC(C)n1nc(-c2ccc3oc(N)nc3c2)c2c(N)ncnc21` + CC(C)NCC(C(=O)N1CCN(c2ncnc3c2C(C)CC3O)CC1)c1ccc(Cl)cc1 was tested, and the pIC50 [1] was 7.81, the pIC50 [2] was 7.85 and the pIC50 [3] was 8.11. For the same compound, the pIC50 [4] was 8.74, the pIC50 [5] was > 9.50 and the viability, T/C [6] was 96%. The viability, T/C [7] was 96.5%, the viability, T/C [8] was 89.6% and the viability, T/C [9] was 59.2%. For the same compound, the viability, T/C (second compound 0.3 µM, first compound 0.0316 µM) was 31.3%, the viability, T/C (second compound 0.3 µM, first compound 0.1 µM) was 6.8% and the viability, T/C [10] was 88.9%. For the same compound, the viability, T/C [11] was 95.8%, the viability, T/C [12] was 80.1% and the viability, T/C [13] was 58.4%. For the same compound, the viability, T/C (second compound 0.949 µM, first compound 0.0316 µM) was 29%, the viability, T/C (second compound 0.949 µM, first compound 0.1 µM) was 4.5% and the viability, T/C [14] was 88.5%. The viability, T/C [15] was 77.5%, the viability, T/C [16] was 68.5% and the viability, T/C [17] was 47%. For the same compound, the viability, T/C (second compound 3 µM, first compound 0.0316 µM) was 18%, the viability, T/C (second compound 3 µM, first compound 0.1 µM) was 4.85% and the viability, T/C [18] was 66.6%. For the same compound, the viability, T/C [19] was 57.3%, the viability, T/C [20] was 43% and the viability, T/C [21] was 17.2%. It also gave a viability, T/C (second compound 9.49 µM, first compound 0.0316 µM) of 5.97%, a viability, T/C (second compound 9.49 µM, first compound 0.1 µM) of 0.5% and a viability, T/C [22] of 16.4%. It also gave a viability, T/C [23] of 18.2%, a viability, T/C [24] of 11.7% and a viability, T/C [25] of 2.86%. For the same compound, the viability, T/C (second compound 30 µM, first compound 0.0316 µM) was 0.38% and the viability, T/C (second compound 30 µM, first compound 0.1 µM) was 0.2%.
